Reference: the supplement of paper PMC7840683
± gives the standard deviation of the averaged measurements.

Tested on: HepaRG
Assay: LDH release cytotoxicity, % of total lysis control; higher = more cytotoxic
Conditions: 48 h
How it was run: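 HepaRG cells from a single lot were plated on collagen I-coated 96-well plates and treated in duplicate for 48 h with eight-point half-log series of test chemicals, starting at 100 µM, in serum-free induction medium containing 0.5% DMSO. Total lysis wells were given 0.1% Triton X. LDH released into 50 µL of spent medium was measured as resorufin fluorescence with CytoTox-ONE on a Tecan Safire. Percent cytotoxicity was normalized to on-plate vehicle and total lysis controls and then averaged across duplicates.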

CCCOC(=O)c1ccc(C(=O)OCCC)nc1 [Dipropyl 2,5-pyridinedicarboxylate]
LDH release cytotoxicity (0.03305 µM): -4.74 ± 0.19% | LDH release cytotoxicity (0.1045 µM): -5.46 ± 0.7% | LDH release cytotoxicity (0.330458 µM): -5.78 ± 1.4% | LDH release cytotoxicity (1.045 µM): -4.98 ± 2.6% | LDH release cytotoxicity (3.30458 µM): -5.75 ± 0.92% | LDH release cytotoxicity (10.45 µM): -5.51 ± 1.6% | LDH release cytotoxicity (33.0458 µM): -4.96 ± 1.7% | LDH release cytotoxicity (104.5 µM): -4.42 ± 1.1%

COCC(C)OCC(C)O (configuration not stated) [Dipropylene glycol monomethyl ether]
LDH release cytotoxicity (0.03162 µM): -1.67 ± 0.049% | LDH release cytotoxicity (0.1 µM): -1.92 ± 0.76% | LDH release cytotoxicity (0.3162278 µM): -1.46 ± 0.17% | LDH release cytotoxicity (1 µM): -1.8 ± 0.051% | LDH release cytotoxicity (3.16228 µM): -1.39 ± 0.54% | LDH release cytotoxicity (10 µM): -0.852 ± 0.24% | LDH release cytotoxicity (31.6228 µM): 0.852 ± 0.72% | LDH release cytotoxicity (100 µM): 0.163 ± 0.47%

CC(CO)OC(C)CO.CC(O)COCC(C)O (configuration not stated) [Dipropylene glycol]
LDH release cytotoxicity (0.03162 µM): -0.933 ± 0.81% | LDH release cytotoxicity (0.1 µM): -1.33 ± 0.44% | LDH release cytotoxicity (0.3162278 µM): -1.72 ± 1.1% | LDH release cytotoxicity (1 µM): -2.46 ± 0.3% | LDH release cytotoxicity (3.16228 µM): -1.81 ± 0.92% | LDH release cytotoxicity (10 µM): -1.07 ± 0.57% | LDH release cytotoxicity (31.6228 µM): -0.766 ± 1.3% | LDH release cytotoxicity (100 µM): 1.27 ± 1.3%

c1cc[n+]2c(c1)-c1cccc[n+]1CC2 [Diquat dibromide monohydrate]
LDH release cytotoxicity (0.03162 µM): -1.01 ± 0.048% | LDH release cytotoxicity (0.1 µM): 0.359 ± 1.1% | LDH release cytotoxicity (0.3162278 µM): 0.818 ± 0.33% | LDH release cytotoxicity (1 µM): 0.472 ± 0.19% | LDH release cytotoxicity (3.16228 µM): 0.215 ± 0.51% | LDH release cytotoxicity (10 µM): 1.64 ± 0.66% | LDH release cytotoxicity (31.6228 µM): -0.425 ± 0.39% | LDH release cytotoxicity (100 µM): 2.13 ± 0.58%

CCOP(=S)(OCC)SCCSCC [Disulfoton]
LDH release cytotoxicity (0.03162 µM): -1.14 ± 0.34% | LDH release cytotoxicity (0.1 µM): -1.12 ± 0.75% | LDH release cytotoxicity (0.3162278 µM): -1.03 ± 0.2% | LDH release cytotoxicity (1 µM): -1.51 ± 0.2% | LDH release cytotoxicity (3.16228 µM): -1.34 ± 0.37% | LDH release cytotoxicity (10 µM): -1.32 ± 0.63% | LDH release cytotoxicity (31.6228 µM): -1.01 ± 0.54% | LDH release cytotoxicity (100 µM): -0.345 ± 0.13%

CSC(=O)c1c(C(F)F)nc(C(F)(F)F)c(C(=O)SC)c1CC(C)C [Dithiopyr]
LDH release cytotoxicity (0.0140721 µM): -1.51 ± 2.5% | LDH release cytotoxicity (0.0445 µM): -2.25 ± 0.63% | LDH release cytotoxicity (0.1407214 µM): -2.63 ± 0.43% | LDH release cytotoxicity (0.445 µM): -3.81 ± 0.56% | LDH release cytotoxicity (1.4072136 µM): -3.84 ± 0.3% | LDH release cytotoxicity (4.45 µM): -5.82 ± 2.5% | LDH release cytotoxicity (14.072136 µM): -1.76 ± 2.3% | LDH release cytotoxicity (44.5 µM): -1.31 ± 1.6%

CN(C)C(=O)Nc1ccc(Cl)c(Cl)c1 [Diuron]
LDH release cytotoxicity (0.0314647 µM): -0.32 ± 1.2% | LDH release cytotoxicity (0.0995 µM): -1.23 ± 1.5% | LDH release cytotoxicity (0.3146466 µM): -1.57 ± 0.64% | LDH release cytotoxicity (0.995 µM): -0.727 ± 0.72% | LDH release cytotoxicity (3.14647 µM): -1.47 ± 0.9% | LDH release cytotoxicity (9.95 µM): -1.77 ± 0.071% | LDH release cytotoxicity (31.4647 µM): -0.974 ± 0.13% | LDH release cytotoxicity (99.5 µM): 19 ± 4.1%

CCCCC(CC)COC(=O)CC(C(=O)OCC(CC)CCCC)S(=O)(=O)O (configuration not stated) [Docusate sodium]
LDH release cytotoxicity (0.03162 µM): -1.66 ± 0.36% | LDH release cytotoxicity (0.1 µM): -0.373 ± 0.42% | LDH release cytotoxicity (0.3162278 µM): -0.361 ± 0.69% | LDH release cytotoxicity (1 µM): -0.887 ± 0.12% | LDH release cytotoxicity (3.16228 µM): -0.195 ± 0.3% | LDH release cytotoxicity (10 µM): -1.39 ± 0.72% | LDH release cytotoxicity (31.6228 µM): 1.52 ± 0.59% | LDH release cytotoxicity (100 µM): 75.5 ± 1.1%

CCCCCCCCCCCCc1cccc(S(=O)(=O)O)c1 [Dodecylbenzene sulfonate triethanolamine(1:1)]
LDH release cytotoxicity (0.02846 µM): -1.49 ± 0.8% | LDH release cytotoxicity (0.09 µM): -0.848 ± 1.3% | LDH release cytotoxicity (0.284605 µM): -1.53 ± 0.58% | LDH release cytotoxicity (0.9 µM): -1.22 ± 0.78% | LDH release cytotoxicity (2.84605 µM): -0.852 ± 0.19% | LDH release cytotoxicity (9 µM): -1.11 ± 0.016% | LDH release cytotoxicity (28.4605 µM): -0.984 ± 0.56% | LDH release cytotoxicity (90 µM): 5.69 ± 0.45%

CCCCCCCCCCCCc1ccccc1 [Dodecylbenzene]
LDH release cytotoxicity (0.03162 µM): -2.1 ± 0.14% | LDH release cytotoxicity (0.1 µM): -1.71 ± 0.15% | LDH release cytotoxicity (0.3162278 µM): -1.86 ± 0.75% | LDH release cytotoxicity (1 µM): -2.59 ± 0.8% | LDH release cytotoxicity (3.16228 µM): -2.08 ± 0.19% | LDH release cytotoxicity (10 µM): -0.672 ± 0.39% | LDH release cytotoxicity (31.6228 µM): -1.17 ± 0.31% | LDH release cytotoxicity (100 µM): 1.25 ± 1.2%

CCCCCCCCCCCCc1ccc(S(=O)(=O)O)cc1 [Dodecylbenzenesulfonic acid]
LDH release cytotoxicity (0.031623 µM): -1.05 ± 0.58% | LDH release cytotoxicity (0.1 µM): -1.4 ± 1.3% | LDH release cytotoxicity (0.316228 µM): -2.17 ± 0.79% | LDH release cytotoxicity (1 µM): -3.27 ± 1.6% | LDH release cytotoxicity (3.16228 µM): -2.52 ± 0.99% | LDH release cytotoxicity (10 µM): -2.56 ± 0.4% | LDH release cytotoxicity (31.6228 µM): -1.64 ± 0.34% | LDH release cytotoxicity (100 µM): 65.65 ± 0.34%

CCCCCCCCCCCC[N+](C)(C)C [Dodecyltrimethylammonium chloride]
LDH release cytotoxicity (0.03162 µM): -1.4 ± 0.15% | LDH release cytotoxicity (0.1 µM): -0.753 ± 0.6% | LDH release cytotoxicity (0.3162278 µM): -1.39 ± 0.13% | LDH release cytotoxicity (1 µM): -1.32 ± 0.19% | LDH release cytotoxicity (3.16228 µM): -1.23 ± 0.47% | LDH release cytotoxicity (10 µM): -0.28 ± 0.2% | LDH release cytotoxicity (31.6228 µM): 0.602 ± 0.64% | LDH release cytotoxicity (100 µM): 78 ± 0.7%

CCOP(=S)(Oc1ccc([N+](=O)[O-])cc1)c1ccccc1 (configuration not stated) [EPN]
LDH release cytotoxicity (0.03162 µM): -0.935 ± 0.29% | LDH release cytotoxicity (0.1 µM): -1.31 ± 0.65% | LDH release cytotoxicity (0.3162278 µM): -1.61 ± 1% | LDH release cytotoxicity (1 µM): -1.96 ± 0.085% | LDH release cytotoxicity (3.16228 µM): -1.14 ± 0.37% | LDH release cytotoxicity (10 µM): -0.361 ± 0.0065% | LDH release cytotoxicity (31.6228 µM): 0.629 ± 0.14% | LDH release cytotoxicity (100 µM): 5.51 ± 0.88%

CCCN(CCC)C(=O)SCC [EPTC]
LDH release cytotoxicity (0.03162 µM): 0.307 ± 0.45% | LDH release cytotoxicity (0.1 µM): -0.433 ± 0.099% | LDH release cytotoxicity (0.3162278 µM): -0.271 ± 0.12% | LDH release cytotoxicity (1 µM): -0.35 ± 0.45% | LDH release cytotoxicity (3.16228 µM): -0.208 ± 0.25% | LDH release cytotoxicity (10 µM): 0.499 ± 0.14% | LDH release cytotoxicity (31.6228 µM): 0.312 ± 0.64% | LDH release cytotoxicity (100 µM): 0.622 ± 0.63%

CN1CCN(c2ccccc2C=C2SCCN(c3ccc(Cl)c(Cl)c3)C2=O)CC1 [Elzasonan]
LDH release cytotoxicity (0.03162 µM): 0.236 ± 2.3% | LDH release cytotoxicity (0.1 µM): 0.483 ± 1.1% | LDH release cytotoxicity (0.3162278 µM): 0.649 ± 0.75% | LDH release cytotoxicity (1 µM): -0.238 ± 0.039% | LDH release cytotoxicity (3.16228 µM): -0.446 ± 0.23% | LDH release cytotoxicity (10 µM): 0.355 ± 0.19% | LDH release cytotoxicity (31.6228 µM): 9.77 ± 0.73% | LDH release cytotoxicity (100 µM): 88.8 ± 3.5%

CC[C@H](C)C1O[C@]2(C=C[C@@H]1C)C[C@@H]1C[C@@H](C/C=C(\C)[C@@H](O[C@H]3C[C@H](OC)[C@@H](O[C@H]4C[C@H](OC)[C@H](NC)[C@H](C)O4)[C@H](C)O3)[C@@H](C)/C=C/C=C3\CO[C@@H]4[C@H](O)C(C)=C[C@@H](C(=O)O1)[C@]34O)O2 (some centres not stated) [Emamectin benzoate]
LDH release cytotoxicity (0.031623 µM): -1.83 ± 1% | LDH release cytotoxicity (0.1 µM): -1.09 ± 0.55% | LDH release cytotoxicity (0.316228 µM): -2.57 ± 0.26% | LDH release cytotoxicity (1 µM): -3.84 ± 0.41% | LDH release cytotoxicity (3.16228 µM): -2.51 ± 1.1% | LDH release cytotoxicity (10 µM): 5.16 ± 1.4% | LDH release cytotoxicity (31.6228 µM): 83.4 ± 1.7% | LDH release cytotoxicity (100 µM): 87 ± 4.4%

O=S1OCC2C(CO1)C1(Cl)C(Cl)=C(Cl)C2(Cl)C1(Cl)Cl (configuration not stated) [Endosulfan]
LDH release cytotoxicity (0.03162 µM): 0.0956 ± 0.07% | LDH release cytotoxicity (0.1 µM): -0.361 ± 0.27% | LDH release cytotoxicity (0.3162278 µM): -0.482 ± 0.4% | LDH release cytotoxicity (1 µM): -0.273 ± 0.024% | LDH release cytotoxicity (3.16228 µM): -0.151 ± 0.84% | LDH release cytotoxicity (10 µM): 0.616 ± 0.33% | LDH release cytotoxicity (31.6228 µM): -0.612 ± 0.076% | LDH release cytotoxicity (100 µM): 14.5 ± 0.024%

O=C(O)C1C2CCC(O2)C1C(=O)O (configuration not stated) [Endothal]
LDH release cytotoxicity (0.03162 µM): -1.48 ± 0.36% | LDH release cytotoxicity (0.1 µM): -1.31 ± 0.46% | LDH release cytotoxicity (0.3162278 µM): -0.8 ± 1.6% | LDH release cytotoxicity (1 µM): -0.517 ± 0.22% | LDH release cytotoxicity (3.16228 µM): -1.16 ± 0.45% | LDH release cytotoxicity (10 µM): -1 ± 0.32% | LDH release cytotoxicity (31.6228 µM): 1.01 ± 0.73% | LDH release cytotoxicity (100 µM): 21.8 ± 0.24%

ClC1=C(Cl)C2(Cl)C3C4CC(C5OC45)C3C1(Cl)C2(Cl)Cl (configuration not stated) [Endrin]
LDH release cytotoxicity (0.03162 µM): -0.958 ± 0.053% | LDH release cytotoxicity (0.1 µM): -0.149 ± 0.18% | LDH release cytotoxicity (0.3162278 µM): -0.591 ± 0.61% | LDH release cytotoxicity (1 µM): -0.635 ± 0.031% | LDH release cytotoxicity (3.16228 µM): -0.591 ± 0.57% | LDH release cytotoxicity (10 µM): -0.724 ± 0.2% | LDH release cytotoxicity (31.6228 µM): 0.152 ± 0.33% | LDH release cytotoxicity (100 µM): 6.26 ± 0.25%
